According to patent US20260275368A1, “COUMARIN SYNTHESIS AND USES THEREOF” (BASF SE, priority 2022, published 2026):

Key:
[1] = tested on: Phakopsora pachyrhizi; assay: Pathogen assay for soybean: susceptibility to soybean rust (diseased leaf area); type: in vivo, Phakopsora pachyrhizi on soybean
Protocol: 12 T1 soybean plants per event and respective controls are potted and grown for 3-4 weeks in the phytochamber (16 h day-und 8 h-night-Rhythm at a temperature of 16° and 22° C. und a humidity of 75%) till the first 2 trifoliate leaves were fully expanded.
The plants are inoculated with spores of P. pachyrhizi. In order to obtain appropriate spore material for the inoculation, soybean leaves, which are infected with rust 15-20 days ago, are taken 2-3 days before the inoculation and transferred to agar plates (1% agar in H2O). The leaves are placed with their upper side onto the agar, which allowed the fungus to grow through the tissue and to produce very young spores. For the inoculation solution, the spores are knocked off the leaves and are added to a Tween-H2O solution. The counting of spores is performed under a light microscope by means of a Thoma counting chamber. […]
The progression of the soybean rust disease is scored in percent by the estimation of the diseased area (area which was covered by sporulating uredinia) on the backside (abaxial side) of the leaf. […]
At all 11-12 T1 soybean plants per event and 5 independent events per construct were inoculated with spores of Phakopsora pachyrhizi. The macroscopic disease symptoms of soybean against P. pachyrhizi of the inoculated soybean plants were scored 14 days after inoculation. […]

[2] = tested on: soybean plants; assay: Rating for plant health of T1 soybean plants; type: in vivo
Protocol: 12 T1 soybean plants per event and respective controls are potted and grown for 3-4 weeks in the phytochamber (16 h day-und 8 h-night-Rhythm at a temperature of 16° and 22° C. und a humidity of 75%) till the first 2 trifoliate leaves were fully expanded. A general rating of plant health is performed before (and partially after) the infection experiment. Only those plants are selected for inoculation that show, in general, a healthy phenotype. Healthy phenotype means normal growth habit, green, fully expanded green leaves, having no or only minor lesions, no obvious yellowing, leaf drop or other stress-associated phenotypes.

[3] = transgenic soybean accumulating the coumarin, compared with WT

| SMILES | reduction of the diseased leaf area in comparison to non-transgenic control plants ([1]; 59 T1 soybean plants (5 events) accumulating sideretin by expressing S8H+CYP82C4, inoculated with P. pachyrhizi spores, scored 14 days after inoculation, p<0.01) [%] | increase of soybean rust resistance ([1]; accumulation of sideretin by expression of S8H and CYP82C4 (and F6H1 and CoSy) in T1 soybean, vs 18 wild type controls, 14 days after inoculation, p=0,009) [%] | Germination rate ([2]; in vivo) | first trifoliate leaf ([2]; in vivo) | growth phenotype ([2]; in vivo) | older leaves ([2]; in vivo) | Germination rate [2, 3] | first trifoliate leaf [2, 3] | growth phenotype [2, 3] | older leaves [2, 3] |
| --- | --- | --- | --- | --- | --- | --- | --- | --- | --- | --- |
| COc1c(O)c(O)c2oc(=O)ccc2c1O [Sideretin, sideretin] | 41 | 41 | like WT | like WT | like WT | Unclear |  |  |  |  |
| COc1cc2ccc(=O)oc2cc1O [Scopoletin, scopoletin, reference compound] |  |  |  |  |  |  | Slightly | some | Smaller | Yellowing of |
